Measured values from ChEMBL document CHEMBL1128985, “Mechanism-based inactivation of -chymotrypsin” (Bioorg Med Chem Lett, 1996).

Legend:
[1] = molecular target: Chymotrypsinogen A (Bos taurus) (UniProt P00766); test: Irreversible inhibitory activity against alpha-chymotrypsin; No inhibition
[2] = molecular target: T1, Chymotrypsin-like elastase family member 2A (Sus scrofa) (UniProt P08419); test: Irreversible inhibitory activity against porcine pancreatic elastase at concentration 4.8 uM; No irreversible inhibitory activity
T1 sequence (whole entry): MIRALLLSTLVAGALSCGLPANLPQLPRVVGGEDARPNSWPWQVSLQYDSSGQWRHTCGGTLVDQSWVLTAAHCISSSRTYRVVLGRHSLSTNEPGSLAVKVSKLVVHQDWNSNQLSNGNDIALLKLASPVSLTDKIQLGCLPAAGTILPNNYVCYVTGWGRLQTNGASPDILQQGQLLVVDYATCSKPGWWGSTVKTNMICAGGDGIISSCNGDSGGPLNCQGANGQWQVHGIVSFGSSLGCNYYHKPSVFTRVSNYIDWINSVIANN

[3] = molecular target: Chymotrypsinogen A (Bos taurus) (UniProt P00766); test: Irreversible inhibitory activity against alpha-chymotrypsin; Inhibition observed

Activity [1]	Activity [2]	Activity [3]	Structure (SMILES)
< 1 mM			O=C(O)CCC(=O)N[C@@H](Cc1ccccc1)C(=O)OC1CC1(Cl)Cl (some centres undefined)
	1.2 mM	500 µM	CC(NC(=O)C(C)NC(=O)CCC(=O)N[C@@H](Cc1ccccc1)C(=O)OC1CC1(Cl)Cl)C(=O)O (some centres undefined)
14.5 mM			O=C(O)CCC(=O)N[C@@H](Cc1ccccc1)C(=O)NC1CC1(Cl)Cl (some centres undefined)
